Measured values: publication PMC10728902, “β-L-Arabinofurano-cyclitol Aziridines Are Covalent Broad-Spectrum Inhibitors and Activity-Based Probes for Retaining β-L-Arabinofuranosidases” (ACS Chemical Biology, 2023)
Where two headings read alike, the source gives them in different places.

Assays:
rBtGH146 = molecular target: T1, rBtGH146 (Bacteroides thetaiotaomicron, UniProt Q8AAW3); assay: inactivation kinetics, residual hydrolysis of 4-nitrophenyl beta-L-arabinofuranoside, A405; type: biochemical
T1 construct: gene BT_0349; recombinant, expressed in E. coli; 92 kDa on gel; produced by published procedures
T1 sequence (Q8AAW3 1-802): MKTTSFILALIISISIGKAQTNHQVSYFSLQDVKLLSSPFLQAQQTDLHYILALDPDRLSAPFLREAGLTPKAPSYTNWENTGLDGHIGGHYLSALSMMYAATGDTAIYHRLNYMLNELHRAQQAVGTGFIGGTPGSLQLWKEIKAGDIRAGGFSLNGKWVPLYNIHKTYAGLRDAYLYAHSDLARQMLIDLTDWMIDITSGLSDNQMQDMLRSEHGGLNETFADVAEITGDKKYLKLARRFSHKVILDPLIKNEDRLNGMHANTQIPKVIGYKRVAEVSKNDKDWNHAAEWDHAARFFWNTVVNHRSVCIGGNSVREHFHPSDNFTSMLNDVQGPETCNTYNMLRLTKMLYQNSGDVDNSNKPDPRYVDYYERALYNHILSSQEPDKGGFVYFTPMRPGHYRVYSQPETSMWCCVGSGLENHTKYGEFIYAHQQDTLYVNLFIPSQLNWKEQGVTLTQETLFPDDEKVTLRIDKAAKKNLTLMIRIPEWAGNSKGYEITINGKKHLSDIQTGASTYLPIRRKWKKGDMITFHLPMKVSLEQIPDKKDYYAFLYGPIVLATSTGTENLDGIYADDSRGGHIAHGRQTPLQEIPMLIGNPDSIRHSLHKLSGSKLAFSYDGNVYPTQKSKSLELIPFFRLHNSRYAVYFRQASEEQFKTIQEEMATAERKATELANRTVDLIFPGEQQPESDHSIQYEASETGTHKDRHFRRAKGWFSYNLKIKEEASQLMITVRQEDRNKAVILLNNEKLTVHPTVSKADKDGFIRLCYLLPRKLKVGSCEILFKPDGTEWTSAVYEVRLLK
Description: inactivation kinetics, residual hydrolysis of 4-nitrophenyl beta-L-arabinofuranoside, A405 on rBtGH146

rHypBA1 = molecular target: T2, rHypBA1 (Bifidobacterium longum, UniProt E8MGH8); assay: as above; type: biochemical
T2 construct: gene hypBA1; recombinant; 74 kDa; produced by published procedures
T2 sequence (E8MGH8 1-658): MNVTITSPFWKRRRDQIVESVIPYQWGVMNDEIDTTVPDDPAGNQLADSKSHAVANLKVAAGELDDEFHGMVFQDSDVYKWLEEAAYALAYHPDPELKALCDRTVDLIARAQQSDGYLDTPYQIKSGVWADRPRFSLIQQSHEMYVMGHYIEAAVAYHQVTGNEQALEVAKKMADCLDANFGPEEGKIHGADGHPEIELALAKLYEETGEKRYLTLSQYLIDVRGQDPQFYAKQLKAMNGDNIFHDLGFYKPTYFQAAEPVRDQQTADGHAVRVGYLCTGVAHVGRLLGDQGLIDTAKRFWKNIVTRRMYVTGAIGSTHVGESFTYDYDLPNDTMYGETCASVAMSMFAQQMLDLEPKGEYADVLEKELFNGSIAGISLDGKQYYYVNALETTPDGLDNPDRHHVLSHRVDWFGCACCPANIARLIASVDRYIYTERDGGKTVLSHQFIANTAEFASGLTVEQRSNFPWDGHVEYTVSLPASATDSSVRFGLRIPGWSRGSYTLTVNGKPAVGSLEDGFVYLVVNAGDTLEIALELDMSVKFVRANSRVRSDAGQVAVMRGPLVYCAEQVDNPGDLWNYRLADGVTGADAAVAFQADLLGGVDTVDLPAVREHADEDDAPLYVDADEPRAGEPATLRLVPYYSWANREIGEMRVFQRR
Description: inactivation kinetics, residual hydrolysis of 4-nitrophenyl beta-L-arabinofuranoside, A405 on rHypBA1

[1] = read-out: rBtGH146 / KI, covalent, time-dependent, pH 7.5 HEPES, 200 mM NaCl, 1 mM DTT, 37 °C

Structure (SMILES)	KI (inactivation) (rBtGH146; [1]) [µM]	kinact/KI (rHypBA1) [M⁻¹ s⁻¹]	KI (inactivation) (rHypBA1; read-out: rHypBA1 / KI, covalent, time-dependent, pH 4.5 acetate, 1 mM DTT, 37 °C) [µM]	KI (inactivation) (rBtGH146; covalent, time-dependent, pH 7.5 HEPES, 200 mM NaCl, 1 mM DTT, 37 °C, read-out: rBtGH146 / KI) [µM]
CN1C(=CC=CC=CC2=[N+](CCCCCC(=O)NCCCCCCCCOC[C@H]3[C@H](O)[C@@H](O)[C@H]4O[C@@H]34)c3ccccc3C2(C)C)C(C)(C)c2ccccc21 [compound 4, Cy5-tagged epoxide ABP 4]	140 ± 10	< 0.1		
NCCCCCCCCN1[C@@H]2[C@H](O)[C@@H](O)[C@H](CO)[C@@H]21 (stereo partly drawn) [compound 7, aziridine 7]	190 ± 20		280 ± 90	
OC[C@H]1[C@H](O)[C@@H](O)[C@H]2N[C@@H]12 [compound 2, β-L-arabinofuranosyl cyclophellitol aziridine]		> 4200		350 ± 40
